Results: US10577363B2, “Substituted piperidine compounds” (EPIZYME, INC., priority 2014, dated 2020)

How the values were obtained:
SMYD3 [1] = target: T1, SMYD3 (Homo sapiens (Human), UniProt Q9H7B4); assay: SMYD3 biochemical assay (SPA, 3H-SAM methylation of MEKK2 protein substrate); settings: Table 2A; read-out: SMYD3 Biochem IC50
Summary of the method: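 Full-length native human SMYD3 (E. coli-expressed, tags removed) preincubated with compounds 30 min at room temperature, then reaction started with 3H-SAM and GST-tagged MEKK2 protein in 25 mM Tris-Cl pH 8.0, 1 mM TCEP, 0.005% BSG, 0.005% Tween 20. Quenched with unlabelled SAM (100 uM final); 3H-MEKK2 counted by SPA.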

SMYD3 [2] = target: T1, SMYD3; assay: SMYD3 cell assay (Trimethyl-MEKK2 In-Cell Western in 293T/17 cells); assay type: cell-based; settings: Table 2A; read-out: SMYD3 Cell IC50
Summary of the method: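 In-Cell Western ratio of trimethyl-Lys260 MEKK2 to anti-flag signal; percent inhibition from DMSO and maximum-inhibition controls, IC50 by non-linear regression, triplicates.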

T1 sequence (Q9H7B4 whole entry): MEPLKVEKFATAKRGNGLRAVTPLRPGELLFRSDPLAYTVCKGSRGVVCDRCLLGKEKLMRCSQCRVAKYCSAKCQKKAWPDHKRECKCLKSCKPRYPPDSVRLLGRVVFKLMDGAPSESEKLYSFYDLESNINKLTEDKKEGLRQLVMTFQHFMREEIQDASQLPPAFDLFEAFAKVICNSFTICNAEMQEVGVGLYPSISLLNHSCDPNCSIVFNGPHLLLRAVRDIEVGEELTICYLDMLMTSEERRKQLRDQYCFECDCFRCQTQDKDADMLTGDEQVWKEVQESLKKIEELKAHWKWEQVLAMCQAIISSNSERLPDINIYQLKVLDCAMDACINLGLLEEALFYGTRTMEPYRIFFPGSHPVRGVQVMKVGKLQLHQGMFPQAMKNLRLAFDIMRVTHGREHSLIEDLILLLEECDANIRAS

| SMILES | IC50 (SMYD3 [1]) [nM] | IC50 (SMYD3 [2]) [nM] |
| --- | --- | --- |
| O=C(N[C@H]1C[C@H]2CC[C@@H](C1)N2S(=O)(=O)CC1CCN(CCN2CCCCC2)CC1)c1cc(C2CC2)on1 [compound 549, 5-cyclopropyl-N-((1R,3r,5S)-8-(((1-(2-(piperidin-1-yl)ethyl)piperidin-4-yl)methyl)sulfonyl)-8-azabicyclo[3.2.1]octan-3-yl)isoxazole-3-carboxamide] | 2.5 | 312 |
| CC(C)N1CCC(CS(=O)(=O)N2CC[C@H](NC(=O)c3cc(C4CC4)on3)C[C@@H]2C)CC1 [compound 550, 5-cyclopropyl-N-((2S,4S)-1-(((1-isopropylpiperidin-4-yl)methyl)sulfonyl)-2-methylpiperidin-4-yl)isoxazole-3-carboxamide] | 2.6 | 168 |
| O=C(N[C@H]1C[C@H]2CC[C@@H](C1)N2S(=O)(=O)CC1CCN(CCC(F)(F)F)CC1)c1cc(C2CC2)on1 [compound 551, 5-cyclopropyl-N-((1R,3r,5S)-8-(((1-(3,3,3-trifluoropropyl)piperidin-4-yl)methyl)sulfonyl)-8-azabicyclo[3.2.1]octan-3-yl)isoxazole-3-carboxamide] | 2.9 | 54.2 |
| NC1CC2(C1)CN(S(=O)(=O)N1[C@@H]3CC[C@H]1C[C@@H](NC(=O)c1cc(C4CC4)on1)C3)C2 [compound 552, N-((1R,3r,5S)-8-((6-amino-2-azaspiro[3.3]heptan-2-yl)sulfonyl)-8-azabicyclo[3.2.1]octan-3-yl)-5-cyclopropylisoxazole-3-carboxamide] | 3.1 | 49.2 |
| C[C@H]1C[C@@H](NC(=O)c2cc(C3CC3)on2)CCN1S(=O)(=O)CC1CCN(CCN2CCCCC2)CC1 [compound 553, 5-cyclopropyl-N-((2S,4S)-2-methyl-1-(((1-(2-(piperidin-1-yl)ethyl)piperidin-4-yl)methyl)sulfonyl)piperidin-4-yl)isoxazole-3-carboxamide] | 3.4 | 106 |
| COCCN1CCC(CS(=O)(=O)N2CC[C@H](NC(=O)c3cc(C4CC4)on3)C[C@@H]2C)CC1 [compound 554, 5-cyclopropyl-N-((2S,4S)-1-(((1-(2-methoxyethyl)piperidin-4-yl)methyl)sulfonyl)-2-methylpiperidin-4-yl)isoxazole-3-carboxamide] | 3.5 | 70.4 |
| COCCN1CCC(CS(=O)(=O)N2[C@@H]3CC[C@H]2C[C@@H](NC(=O)c2cc(C4CC4)on2)C3)CC1 [compound 556, 5-cyclopropyl-N-((1R,3r,5S)-8-(((1-(2-methoxyethyl)piperidin-4-yl)methyl)sulfonyl)-8-azabicyclo[3.2.1]octan-3-yl)isoxazole-3-carboxamide] | 3.9 | 55.7 |
| CC(C)CN1CCC(CS(=O)(=O)N2CC[C@H](NC(=O)c3cc(C4CC4)on3)C[C@@H]2C)CC1 [compound 557, 5-cyclopropyl-N-((2S,4S)-1-(((1-isobutylpiperidin-4-yl)methyl)sulfonyl)-2-methylpiperidin-4-yl)isoxazole-3-carboxamide] | 4.2 | 261 |
| CN1C2CCC1CN(S(=O)(=O)N1[C@@H]3CC[C@H]1C[C@@H](NC(=O)c1cc(C4CC4)on1)C3)C2 [compound 560, 5-cyclopropyl-N-((1R,3r,5S)-8-((8-methyl-3,8-diazabicyclo[3.2.1]octan-3-yl)sulfonyl)-8-azabicyclo[3.2.1]octan-3-yl)isoxazole-3-carboxamide] | 4.8 | 51.6 |
| CNCCNCCCS(=O)(=O)N1[C@@H]2CC[C@H]1C[C@@H](NC(=O)c1cc(C3CC3)on1)C2 [compound 563, 5-cyclopropyl-N-((1R,3r,5S)-8-((3-((2-(methylamino)ethyl)amino)propyl)sulfonyl)-8-azabicyclo[3.2.1]octan-3-yl)isoxazole-3-carboxamide] | 5.3 | 339 |
| NCCNCCCS(=O)(=O)N1[C@@H]2CC[C@H]1C[C@@H](NC(=O)c1cc(C3CC3)on1)C2 [compound 564, N-((1R,3r,5S)-8-((3-((2-aminoethyl)amino)propyl)sulfonyl)-8-azabicyclo[3.2.1]octan-3-yl)-5-cyclopropylisoxazole-3-carboxamide] | 5.3 | 166 |
| C[C@H]1C[C@@H](NC(=O)c2cc(C3CC3)on2)CCN1S(=O)(=O)N1CC2CCC(C1)N2C [compound 565, 5-cyclopropyl-N-((2S,4S)-2-methyl-1-((8-methyl-3,8-diazabicyclo[3.2.1]octan-3-yl)sulfonyl)piperidin-4-yl)isoxazole-3-carboxamide] | 6 | 49.4 |
| O=C(N[C@H]1C[C@H]2CC[C@@H](C1)N2S(=O)(=O)C[C@@H]1CCCNC1)c1cc(C2CC2)on1 [compound 569, 5-cyclopropyl-N-((1R,3R,5S)-8-((((R)-piperidin-3-yl)methyl)sulfonyl)-8-azabicyclo[3.2.1]octan-3-yl)isoxazole-3-carboxamide] | 6.6 | 39.4 |
| O=C(N[C@H]1C[C@H]2CC[C@@H](C1)N2S(=O)(=O)N1CC2CC(C1)N2)c1cc(C2CC2)on1 [compound 571, N-((1R,3r,5S)-8-((3,6-diazabicyclo[3.1.1]heptan-3-yl)sulfonyl)-8-azabicyclo[3.2.1]octan-3-yl)-5-cyclopropylisoxazole-3-carboxamide] | 7.5 | 99.2 |
| O=C(N[C@H]1C[C@H]2CC[C@@H](C1)N2S(=O)(=O)C[C@H]1CCCNC1)c1cc(C2CC2)on1 [compound 575, 5-cyclopropyl-N-((1R,3S,5S)-8-((((S)-piperidin-3-yl)methyl)sulfonyl)-8-azabicyclo[3.2.1]octan-3-yl)isoxazole-3-carboxamide] | 8 | 67.4 |

Continued, values first:

| IC50 (SMYD3 [1]) [nM] | IC50 (SMYD3 [2]) [nM] | SMILES |
| --- | --- | --- |
| 4.3 | 71.9 | C[C@H]1C[C@@H](NC(=O)c2cc(C3CC3)on2)CCN1S(=O)(=O)N1CCNCC1 [compound 558, 5-cyclopropyl-N-((2S,4S)-2-methyl-1-(piperazin-1-ylsulfonyl)piperidin-4-yl)isoxazole-3-carboxamide] |
| 6.1 | 322 | C[C@H]1C[C@@H](NC(=O)c2cc(C3CC3)on2)CCN1S(=O)(=O)CCCNCc1ccc(C(F)(F)F)cc1 [compound 566, 5-cyclopropyl-N-((2S,4S)-2-methyl-1-((3-((4-(trifluoromethyl)benzyl)amino)propyl)sulfonyl)piperidin-4-yl)isoxazole-3-carboxamide] |
| 6.1 | 113 | C[C@H]1CN(S(=O)(=O)N2CCC(N)CC2)CC[C@H]1NC(=O)c1cc(C2CC2)on1 [compound 567, N-((3S,4R)-1-((4-aminopiperidin-1-yl)sulfonyl)-3-methylpiperidin-4-yl)-5-cyclopropylisoxazole-3-carboxamide] |
| 6.3 | 156 | C[C@@H]1C[C@H](NC(=O)c2cc(C3CC3)on2)CCN1S(=O)(=O)CC1CCN(C)CC1 [compound 568, 5-cyclopropyl-N-((2R,4R)-2-methyl-1-(((1-methylpiperidin-4-yl)methyl)sulfonyl)piperidin-4-yl)isoxazole-3-carboxamide] |
| 6.7 | 83.9 | C[C@H]1C[C@@H](NC(=O)c2cc(C3CC3)on2)CCN1S(=O)(=O)N1CC2CC1CN2 (stereo partly drawn) [compound 570, N-((2S,4S)-1-((2,5-diazabicyclo[2.2.1]heptan-2-yl)sulfonyl)-2-methylpiperidin-4-yl)-5-cyclopropylisoxazole-3-carboxamide] |
| 7.8 | 53.6 | C[C@H]1CN(S(=O)(=O)N2CC[C@H](NC(=O)c3cc(C4CC4)on3)C[C@@H]2C)CCN1 [compound 572, 5-cyclopropyl-N-((2S,4S)-2-methyl-1-(((S)-3-methylpiperazin-1-yl)sulfonyl)piperidin-4-yl)isoxazole-3-carboxamide] |
| 8 | 293 | C[C@@H]1C[C@H](NC(=O)c2cc(C3CC3)on2)CCN1S(=O)(=O)CC1CCN(Cc2ccccc2)CC1 [compound 573, N-((2R,4R)-1-(((1-benzylpiperidin-4-yl)methyl)sulfonyl)-2-methylpiperidin-4-yl)-5-cyclopropylisoxazole-3-carboxamide] |
| 8 | 105 | C[C@H]1C[C@@H](NC(=O)c2cc(C3CC3)on2)CCN1S(=O)(=O)C1CCN(C)CC1 [compound 574, 5-cyclopropyl-N-((2S,4S)-2-methyl-1-((1-methylpiperidin-4-yl)sulfonyl)piperidin-4-yl)isoxazole-3-carboxamide] |
| 8.1 | 106 | C[C@H]1C[C@@H](NC(=O)c2cc(C3CC3)on2)CCN1S(=O)(=O)CCCCN(C)C [compound 576, 5-cyclopropyl-N-((2S,4S)-1-((4-(dimethylamino)butyl)sulfonyl)-2-methylpiperidin-4-yl)isoxazole-3-carboxamide] |
| 9.2 | 134 | C[C@H]1C[C@@H](NC(=O)c2cc(C3CC3)on2)CCN1S(=O)(=O)N1CC2CCC1CN2 (stereo partly drawn) [compound 577, N-((2S,4S)-1-((2,5-diazabicyclo[2.2.2]octan-2-yl)sulfonyl)-2-methylpiperidin-4-yl)-5-cyclopropylisoxazole-3-carboxamide] |
| 9.4 | 289 | C[C@H]1C[C@@H](NC(=O)c2cc(C3CC3)on2)CCN1S(=O)(=O)CCCNCc1ccc2ccccc2c1 [compound 578, 5-cyclopropyl-N-((2S,4S)-2-methyl-1-((3-((naphthalen-2-ylmethyl)amino)propyl)sulfonyl)piperidin-4-yl)isoxazole-3-carboxamide] |
| 9.5 | 587 | C[C@@H]1C[C@H](NC(=O)c2cc(C3CC3)on2)CCN1S(=O)(=O)CC1CCN(CCN2CCCCC2)CC1 [compound 579, 5-cyclopropyl-N-((2R,4R)-2-methyl-1-(((1-(2-(piperidin-1-yl)ethyl)piperidin-4-yl)methyl)sulfonyl)piperidin-4-yl)isoxazole-3-carboxamide] |
